Assay results: patent publication US20260345524A1, “TARGETING KDM2A TO ENHANCE IMMUNE RESPONSIVENESS TO CANCERS” (The Board of Trustees of the Leland Stanford Junior …, priority 2023, published 2026)
pIC50: −log10 of the molar value.

Columns and labels:
[1] = test system: NSD1-inhibited MOC1 tumors; assay: Luciferase expressing MOC1 tumors, EZH2 inhibitor treatment, bioluminescence imaging; format: in vivo, mouse (B6 wild type); details: 200 mg/kg daily, luminescence day 10
Method: FIG. 14. Luciferase expressing MOC1 cells, transduced with scramble control shRNA, NSD1 shRNA, or both NSD1 shRNA and KDM2A shRNA, were injected to B6 wild type mice subcutaneously. The mice were treated 24 hours later with or without EZH2 inhibitor (EPZ-6438) at a dose of 200 mg/kg daily, with or without anti-PD-1 antibody (200 μg/mouse). Bioluminescence imaging was used to assess tumor burden; quantified luminescence signal on day 10 is shown in photons per second. *p<0.05.

[2] = not told; cited from earlier work
[3] = test system: KDM2A; details: cited from earlier work
[4] = test system: other JmjC lysine demethylases; details: KDM2A/7A versus other JmjC lysine demethylases; cited from earlier work
[5] = test system: histone acetyl transferases; details: cited from earlier work
[6] = test system: methyl transferases; details: cited from earlier work
[7] = test system: KDM2A; details: cited from earlier work; remark: listed apart in the source
[8] = test system: FaDu tumor spheroids; assay: Spheroid T cell infiltration assay, CD19-CAR T cells co-cultured with CD19-expressing tumor spheroids; format: cell-based, human; details: daminozide 1.5 μM, added the day before T cells; 3 days co-culture
From the text: FIG. 3A-3G. KDM2A inhibition reverses the immune cold phenotype induced by NSD1 inactivation and induces T cell infiltration into the tumor microenvironment. (A) Overview and illustration of experiment workflow. Tumor spheroids were established from HNSCC tumor cells transfected to express truncated CD19 on the cell surface and grown in submerged Matrigel. The spheroids were co-cultured with CD19-CAR-T cells for three days and then isolated for analysis by confocal microscopy. (B) Assessment by qRT-PCR of CXCL9 and CXCL10 expression after CXCL9 or CXCL10 overexpression (OE) in FaDu cells transduced to express shRNA targeting NSD1 (NSD1-sh). (C) Representative images of tumor spheroids after co-cultured with CD19-CAR-T cells for 3 days. Ctrl=vector control; NSD1-sh=shRNA targeting NSD1; CXCL9-OE=overexpression construct for CXCL9; CXCL10-OE=overexpression construct for CXCL10; KDM2A-sh=shRNA targeting KDM2A. Scale bar=50 um. (D) Representative images of tumor spheroids stained with anti-CD3 antibody (red) and DAPI (blue). […] (E) Quantification of CD3+ cells per 100 cells in the spheroids. […] (G) Quantification of CD3^+ cells per 100 cells in the spheroids. […]
Spheroid T cellinfiltration assay. […] After 3 days of co-culture, the spheroid Matrigel domes were harvested and analyzed by microscopy. […] The stained samples were mounted on glass slides and analyzed by LSM700 confocal microscopy (Zeiss). […]

[9] = test system: CTLA4; details: cited from earlier work
[10] = test system: CTLA-4; details: cited from earlier work
[11] = test system: HNSCC; details: human, in vivo; cited from earlier work
[12] = test system: HPV-unrelated HNSCC; assay: neoadjuvant pembrolizumab phase II window-of-opportunity trial (NCT02296684); format: in vivo, human
Method: FIGS. 1A-1D: NSD1 inactivation downregulates the expression of CXCL9 and CXCL10 in HNSCC. RNA expression and genomic sequencing data from a multicenter, phase II, window-of-opportunity trial (NCT02296684) (23) was examined for CXCL9 and CXCL10 expression and NSD1 mutations. In this trial, neoadjuvant pembrolizumab was administered to patients with locally advanced, resectable, HPV-unrelated HNSCC two to three weeks prior to definitive surgical resection. (A) Comparison of CXCL9 and CXCL10 baseline expression to pathologic tumor response (pTR), as defined in (23), to the anti-PD-1 antibody pembrolizumab. Circles represent responders. ▴ A represent non-responders with wild-type NSD1. Gray triangles represent non-responders with mutated NSD1. (B) Tumor histology from the two patients in the trial that had tumors with NSD1 mutations. Histology of NSD wild-type tumors is also shown. […]
CXCL9 and CXCL10 in human HNSCC datasets. […] The dataset was subsequently analyzed using Seurat (25): The series matrix was loaded into a Seurat object and was filtered to exclude poor quality or dying cells by removing cells with a mitochondrial genome fraction of 0.4 or greater as well as those with a unique feature count of fewer than 200 genes. […] Expression of CXCL9 and CXCL10 was analyzed within samples that had been profiled using whole exome sequencing, such that the NSD1 mutation status was known. […]

## CCN(c1cc(-c2ccc(CN3CCOCC3)cc2)cc(C(=O)NCc2c(C)cc(C)[nH]c2=O)c1C)C1CCOCC1 [EPZ-6438]
[1]
  tumor growth in WT mice (EZH2 inhibition): does reduce tumor growth in WT mice but not to the extent that KDM2A inhibition appeared to achieve

## CC(=O)N1c2ccccc2[C@@](C#N)(c2ccccc2)[C@@H]1c1cncc(CCCCCCCN2CCCC2)c1 [KDM2A/7A-IN-1]
[2]
  cell permeability: cell-permeable
[3]
  pIC50: 6.80
[4]
  selectivity over other JmjC lysine demethylases: 75 fold
[5]
  activity on histone acetyl transferases: inactive
[6]
  activity on methyl transferases: inactive

## CN(C)NC(=O)CCC(=O)O [daminozide]
[7]
  effect on KDM2A histone demethylation: significantly abrogate the effect of KDM2A on histone demethylation
[8]
  T cell infiltration into tumor spheroids (CD3+ cells per 100 cells): increased the number of infiltrating T cells into tumor spheroids

## Tremelimumab: fully humanized CTLA4 antibody
[9]; 10 mg/kg monthly vs 15 mg/kg every 3 months, phase II
  toxicity: toxicity was doubled
[9]; at one month
  sustained plasma level in the majority of responders: > 30 µg/mL
[9]; single antibody infusion, 0.01 mg/kg to 15 mg/kg
  dose at which objective responses were evident: ≥ 3 mg/kg

## ipilimumab: fully humanized CTLA4 antibody
[10]; 10 mg/kg
  grade III/IV enterocolitis: ~ 15%
[10]; additional irAEs
  hepatitis: 5-10%
  hypophysitis: 5%
  leucopenia: < 2%
  pancreatitis: < 2%
  rash/pruritus: > 50%
  uveitis: < 2%

## nivolumab: anti-PD-1 antibody
[11]
  clinical response in recurrent/metastatic HNSCC: impressive responses in recurrent/metastatic HNSCC, though only in a minority of patients

## pembrolizumab: anti-PD-1 antibody
[11]
  clinical response in recurrent/metastatic HNSCC: impressive responses in recurrent/metastatic HNSCC, though only in a minority of patients
[12]; neoadjuvant, two to three weeks prior to surgery
  response of tumors with low CXCL9 or CXCL10 expression: None of the tumors with low CXCL9 or CXCL10 expression exhibited response
[12]; two patients
  response of patients with NSD1 inactivating mutations: Both were non-responders
